Common to all, as to type: cell-based
The test system of assay [1] is SiHa cells. In words: Clonogenic assay, SiHa. The conditions noted are these: 14 days. On the procedure: Cells were seeded in DMEM at 1×10^3 cells/well density in 12-well plates and allowed to attach to the substrate overnight. Thereafter, cells were treated with 0 µM, 16 µM, 32 µM, 80 µM, and 160 µM peptide in DMEM, and the medium was changed every three days. The plates were observed daily for colony formation. After 8 (for HeLa cells) or 14 (for SiHa and CaSki cells) days of treatment, the cultures were washed three times with PBS and stained with crystal violet in ethanol for 15 min. The colonies were then counted and photographed with the Alphalmager® EP image acquisition system (Alpha Innotech, Santa Clara, CA, USA).

The test system of assay [2] is SiHa cells. Put plainly: MTT cell viability assay, SiHa. The conditions noted are these: HPV16-positive, 80 µM in Fig. 3C, medium replaced daily, A540, mean ± SE, at least two independent runs in sextuplicate. On the procedure:
Cell viability was determined with an MTT assay. Briefly, the cells were seeded into 96-well plates at a density of 4–5×10^3 cells/well. The cells were allowed to recover for 24 h before the medium was replaced with DMEM supplemented with peptides at different concentrations. The solvent of the peptides was set as the control. The peptide-supplemented medium was replaced daily and the respective concentrations were maintained. The cells were subjected to an MTT cell proliferation assay at different time points. The plates were incubated at 37°C for 3 h with the addition of 20 µl/well MTT (5 mg/ml). Untransformed MTT in the solution was removed by aspiration. The formazan product was dissolved in DMSO, and plates were shaken vigorously at room temperature for 10–15 min to ensure complete solubilization. The optical density of the formazan solutions was measured by microplate reader at 540 nm.
Background: Tetrazolium assays rely on reduction of a dye to a coloured formazan, in cell work by metabolically active cells.

The subject of assay [3] is HPV16E7/pRb interaction. Put plainly: Co-IP of HPV16 E7 and pRb in Cos7 cells. The conditions noted are these: Cos7 co-transfected, 80 µM Pep-7. As for the experimental part: For Co-IP, Cos-7 cells seeded in 100 mm plates were co-transfected with HPV16E7-pEYFP-N1 and pRb-pcDNA3.1 using the PEI reagent (Sigma-aldich Chemie GmbH, Steinheim, Germany) described previously. […] Lysate supernate prepared as above were incubated with 10 µl rabbit anti-pRb antibody or mouse anti-flag (negative control) antibody and washed protein G agarose beads (Amersham Biosciences, Little Chalfont, UK) overnight at 4°C under continuous agitation. Beads were subsequently washed four times with the lysis buffer. Bound proteins were eluted by boiling in a Laemmli sample buffer and subjected to western blot assay.

Assay [4] concerns mutated cyclin A and E1 promoters. Put plainly: Luciferase reporter assay, E2F-site-mutated promoters (pMCCNA-Luc, pMCCNE1-Luc), SiHa. To be noted: 80 µM, 24 h, E2F binding sites mutated. The text has this:
HPV16E7-pEYFP plasmid was constructed by sub-cloning the HPV16E7 gene into the EcoRI and BamHI sites of pEYFP-N1. The HPV16E7 gene was obtained by PCR from HPV16E7- pET28a (+) plasmid, which was maintained by our laboratory, using primers pE7N1f and pE7N1b. The pRb gene was obtained by nest PCR from HeLa cDNA using pRb1, pRb2, pRb3, pRb4 as primers. The PCR product was then inserted into the HindIII and Xho I sites of pcDNA3.1-His/V5-Topo. pA3-Luc-Cyclin D1 luciferase reporter plasmid containing the cyclin D1 promoter sequence −1745 to +134 was maintained by our laboratory. Both pCCNE1-Luc and pCCNA1-Luc were constructed by nest PCR to amplify fragments of cyclins E1 and A promoter sequences (cyclin E1: +3 to +594; cyclin A: −284 to +254) which include E2F binding sites, [47] from HeLa cDNA, respectively. Primers used in pCCNE1-Luc construction were P(CCE1), P(CCE2), P(CCE3), and P(CCE4), while primers P(CCA1), P(CCA2), P(CCA3), and P(CCA4) were used in PCCNA1-Luc construction. The PCR products were then cloned into the Kpn1 and Bgl II sites of the pGL3-enhancer (Promega, Madison, WI, USA) luciferase reporter plasmid. […]
The reporter assays were performed using Bright-Glo™ Luciferase Assay System (Promega, Madison, WI, USA) according to the manufacturer's instructions. […] Each sample was determined in triplicate. […]
For orientation: Reporter assays use an easily measured gene product as a stand-in for the process of interest.

For assay [5], the system named is SiHa cells. In words: Western blot, SiHa. To be noted: 80 µM. On the procedure:
Western blotting was carried out as described previously, [50]. […] After another 48 h of treatment, the cells were lysed in lysis buffer (Beyotime Institute of Biotechnology, Jiangshu, China) containing PMSF (Sigma Chemical Co., St. Louis, MI, USA) for 30 min at 4°C. The lysate was then centrifuged for 20 min at 13,000 rpm and 4°C. The proteins were then separated through SDS-PAGE and transferred onto the PVDF membrane (Immobion®-P Transfer Membrane, Millipore Corp., Billerica, MA, USA). Membranes were blocked in a Tris-buffered saline with 0.1% Tween-20 (TBS-T) solution with 5% nonfat dry milk and incubated overnight with primary antibodies at 4°C. The immunoreactive signals were detected by HRP-conjugated secondary antibodies (KPL, Gaithersburg, MD, USA) followed by SuperSignal® West Pico Chemiluminescent Substrate (Thermo Scientific, Milford, MA, USA.). Anti-β-actin antibodies were used to control protein loading. For the in vivo studies, tumors were harvested, and the cell lysates were prepared and transferred to a clean Eppendorf tube and centrifuged for 30 min at 14,000 rpm. The supernate was probed by western blotting, as described above.

The text below walks through data of article PMC3057995, “Potent Anti-Tumor Effect Generated by a Novel Human Papillomavirus (HPV) Antagonist Peptide Reactivating the pRb/E2F Pathway” (PLoS ONE, 2011).

On to “SACPKGLDWCGG (C&C bridged by disulfide bonds) (disulfide) [Pep-7]”, for which the colony formation result in assay [1] (16-160 µM) is given as “inhibited”. Further, the “concentration up to which colony number difference vs control became significant (p<0.02)” value in assay [1] (vs 0 µM group, three independent experiments) is listed as 32 µM. Further, in assay [2], the “cell proliferation (MTT)” value is “repressed significantly by Pep-7 in a dose- and time-dependent manner”. Also, the “co-immunoprecipitation of HPV16E7 with pRb” value in assay [3] was “HPV16E7 could not be immunoprecipitated by the pRb antibodies”. In addition, the “activities of mutated promoters (pMCCNA-Luc, pMCCNE1-Luc)” value in assay [4] is given as “negligible differences from those in control groups”. Further, the “p107 and p130 protein levels” value in assay [5] (SiHa and CaSki (Fig. 4D)) is recorded as “did not exhibit an effect”. For the same sequence, in assay [5] (SiHa, 48 h), the HPV16E7 protein level result is listed as “reduced”; the “cyclins A, D1 and E1 protein expression” value was “significantly reduced”; the pRb protein level entry is “increased”.
